Reference: patent US20050106258A1, “Pharmacology and manufacturing method of Bombyx moriL related bioproduct” (priority 2003, published 2005)
Where a name gives a salt, the structure may show the parent alone.

Tests used:
[1] = test system: 5′ Nucleotide Phosphodiesterase isoenzyme (isoenzyme V) in corpus cavernosum tissue; test: 5′ Nucleotide Phosphodiesterase isoenzyme bands in rat corpus cavernosum tissue after oral dosing (polyacrylamide gel electrophoresis, laser scanning); type: in vivo, rats; conditions: P < 0.05 vs blank comparison (0.495 ± 0.328)
Experimental: Take 50 healthy male rats with body weight of 230±10.4 g, divide them into five groups at random, with 10 rats each group.
(1) The product mainly consisting of bombyx moriL test drug group: 200mg/kg and 400mg/kg two dose groups
(2) The positive comparison drug viagra group: 6 mg/kg and 12 mg/kg two dose groups
(3) The blank comparison group: normal saline 0.4 ml/per animal
Preparation of drug: After product mainly consisting of bombyx moriL and viagra are dissolved with quanitative normal saline, then use them.
Drug feeding way: Feed medicine to all groups of animal once.
Take corpus cavernosum 10 mg, put into the tissue lapping homogenate container, add 0.05M PH7.4 phosphoric acid buffering agent liquid of 0.2 ml homogenate into the ice bath, and lastly add to 10 ml to prepare homogenate liquid with concentration of 1 mg/n ml. Centrifuge by 20 min. at temperature 4° C., 3000 r/min, then take the supernatant liquid for use.
(1) Take 5′ Nucleotide Phosphodiesterase in the amount enough to dissolve phosphoric acid dieter bond by water, under the effecting of the bottom substance of 5′-[5-iodine indoxyl-(3)] thymidine acid ammonium salt, get iodine sub-indoxyl, it can be oxidized in air and generating violet 5.5′,by using -diuodoindigo principle to examine enzyme activity. […]

cGMP = cGMP content in rat cavernous body (125I-cGMP RIA); type: in vivo, rats; conditions: 1.5 hours after administration
Experimental: According to the aim of the experiment, IRA was performed to estimate cGMP content in plasma and cavernous boby of 50 male rats which were administrated by 2 dosages of […] product mainly consisting of bombyx moriL in our ladoratory. Change caused by […] product mainly consisting of bombyx moriL at 1.5 hours after administration was wholly observed. I. Rats: 50 healthy rats were randomly divided into 5 groups, every group is 10 rats 1. Product Mainly Consisting of Bombyx moriL Group: there were two dosage group 200 mg/kg, 400 mg/kg. 2. Viagra Group: two group, 6 mg/kg, 12 mg/kg. 3. Control Group: NS, 0.4 ML/rat. Medicine Dispensing: Viagra and Product Mainly Consisting of Bombyx moriL was dissolved by certain mount of NS. Administration Method: All Group was e.g. for One Time. […] Our laboratory used 125I-cGMP-RIA kit by Isotope Laboratory, detecting Method was double antiboby radioimmune method. The experiment sensitivity is 0.008 pmol/ml, most combination rate of detection is 82.7%,non […] combination rate is 5.0%.

nitric oxide (NO) = test: Nitric oxide contents in the corpora cavernosa of penis in male rats (nitrate reductase method); type: in vivo
Excerpt: It has been approved in literatures that nitric oxide (NO) is formed in the endothelial cells in blood vessels and NO plays as an important signal transmitter in many physical activities of the human body. Nitric Oxide exists in many organs and tissues such as brain, blood vessels, liver, lung, pancreas, immune and reproductive systems. On the basis of No on wide-ranging regulative activities in the human physiological process, the Nitric Oxide contents, in the Sera and the Corpora Cavernosa of Penis in 50 normal male rats, were measured by nitrate reductase method for two dosages of product mainly consisting of bombyx moriL and Sildenafil Citrate(Viagra).On a half and one hour after the drug administrations, the variations of NO content were compared with the two drugs treated animals as a whole situation. The results are: (1) In the rat serum of the tested drug groups, there are distinct NO content differences with statistical […] compared the No contents of the low dosage groups of the two drugs with the control group's, and there are very distinct NO content differences with statistical significance (p<0.001) in the high dosage groups of the two drugs. […]

## CCCc1nn(C)c2c(=O)[nH]c(-c3cc(S(=O)(=O)N4CCN(C)CC4)ccc3OCC)nc12 [Viagra, Sildenafil citrate]
[1]; Viagra 6 mg/kg
  isoenzyme band II area under peak, Peak Area X ± SD: 0.249 ± 0.126
[1]; Viagra 12 mg/kg
  isoenzyme band II area under peak, Peak Area X ± SD: 0.198 ± 0.092
cGMP; Viagra 6 mg/kg, P < 0.1 vs control (0.25 ± 0.05)
  cGMP content in cavernous body, X ± SD: 0.40 ± 0.26 pmol/mL
cGMP; Viagra 12 mg/kg, P < 0.001 vs control (0.25 ± 0.05)
  cGMP content in cavernous body, X ± SD: 0.53 ± 0.12 pmol/mL
Nitric oxide (NO); Viagra high 12 mg/kg, P < 0.05 vs negative control (29.2 ± 5.37)
  NO contents X ± SD, corpora cavernosa: 48.52 ± 17.95 µmol/L
Nitric oxide (NO); Viagra low 6 mg/kg, P < 0.01 vs negative control (29.2 ± 5.37)
  NO contents X ± SD, corpora cavernosa: 44.88 ± 9.47 µmol/L
